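Exposure lasted 48 hours, with cells grown in 96-well plates and compounds tested at five concentrations. GI50 is the concentration that inhibits growth by half.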 Activity calls are given as the source filed them. Cut-off read from the data, not from the text of the source: active = GI50 up to about 1.1 µM and inactive = higher.
What was measured:
Assay in all cases: growth of human tumour cells (NCI), 48 h
CCRF-CEM = test system: CCRF-CEM
M19-MEL = test system: M19-MEL
DMS-273 = test system: DMS-273
SF-539 = test system: SF-539
SNB-75 = test system: SNB-75
NCI-H226 = test system: NCI-H226
UACC-62 = test system: UACC-62
SK-MEL-5 = test system: SK-MEL-5
786-0 = test system: 786-0
SF-295 = test system: SF-295
OVCAR-8 = test system: OVCAR-8
SK-MEL-2 = test system: SK-MEL-2
NCI-H23 = test system: NCI-H23
Malme-3M = test system: Malme-3M
RPMI-8226 = test system: RPMI-8226
HL-60 = test system: HL-60
SF-268 = test system: SF-268
DMS-114 = test system: DMS-114
SN12C = test system: SN12C
DLD-1 = test system: DLD-1
OVCAR-4 = test system: OVCAR-4
OVCAR-3 = test system: OVCAR-3
HCT-116 = test system: HCT-116
HOP-62 = test system: HOP-62
LXFL 529 = test system: LXFL 529
KM12 = test system: KM12
HCC 2998 = test system: HCC 2998
K562 = test system: K562
M14 = test system: M14
HT-29 = test system: HT-29
SNB-19 = test system: SNB-19
SNB-78 = test system: SNB-78
UO-31 = test system: UO-31
TK-10 = test system: TK-10
EKVX = test system: EKVX
SR = test system: SR
SK-MEL-28 = test system: SK-MEL-28
SK-OV-3 = test system: SK-OV-3
COLO 205 = test system: COLO 205
A549 = test system: A549
HOP-92 = test system: HOP-92
NCI-H522 = test system: NCI-H522
SW-620 = test system: SW-620
UACC-257 = test system: UACC-257
MOLT-4 = test system: MOLT-4
CAKI-1 = test system: CAKI-1
IGROV-1 = test system: IGROV-1
LOX IMVI = test system: LOX IMVI
U-251 = test system: U-251
XF498 = test system: XF498
NCI-H460 = test system: NCI-H460
HCT-15 = test system: HCT-15
RXF 393 = test system: RXF 393
A498 = test system: A498
KM-20L2 = test system: KM-20L2
ACHN = test system: ACHN
OVCAR-5 = test system: OVCAR-5

`O=S1(=O)OCCOS(=O)(=O)C1(Br)Br` was tested, and the GI50 (CCRF-CEM) was > 100 µM (inactive), the GI50 (M19-MEL) was > 100 µM (inactive) and the GI50 (DMS-273) was > 100 µM (inactive). The GI50 (SF-539) was > 100 µM (inactive), the GI50 (SNB-75) was > 100 µM (inactive) and the GI50 (NCI-H226) was 0.375 µM (active). The GI50 (UACC-62) was > 100 µM (inactive), the GI50 (SK-MEL-5) was > 100 µM (inactive) and the GI50 (786-0) was > 100 µM (inactive). For the same compound, the GI50 (SF-295) was > 100 µM (inactive), the GI50 (OVCAR-8) was > 100 µM (inactive) and the GI50 (SK-MEL-2) was > 100 µM (inactive). For the same compound, the GI50 (NCI-H23) was > 100 µM (inactive), the GI50 (Malme-3M) was > 100 µM (inactive) and the GI50 (RPMI-8226) was > 100 µM (inactive). For the same compound, the GI50 (HL-60) was > 100 µM (inactive), the GI50 (SF-268) was > 100 µM (inactive) and the GI50 (DMS-114) was > 100 µM (inactive). For the same compound, the GI50 (SN12C) was > 100 µM (inactive), the GI50 (DLD-1) was > 100 µM (inactive) and the GI50 (OVCAR-4) was > 100 µM (inactive). The GI50 (OVCAR-3) was > 100 µM (inactive), the GI50 (HCT-116) was > 100 µM (inactive) and the GI50 (HOP-62) was > 100 µM (inactive). For the same compound, the GI50 (LXFL 529) was > 100 µM (inactive), the GI50 (KM12) was > 100 µM (inactive) and the GI50 (HCC 2998) was > 100 µM (inactive). The GI50 (K562) was > 100 µM (inactive), the GI50 (M14) was > 100 µM (inactive) and the GI50 (HT-29) was > 100 µM (inactive). For the same compound, the GI50 (SNB-19) was 80.7 µM (inactive), the GI50 (SNB-78) was > 100 µM (inactive) and the GI50 (UO-31) was 62.7 µM (inactive). For the same compound, the GI50 (TK-10) was > 100 µM (inactive), the GI50 (EKVX) was > 100 µM (inactive) and the GI50 (SR) was > 100 µM (inactive). The GI50 (SK-MEL-28) was > 100 µM (inactive), the GI50 (SK-OV-3) was > 100 µM (inactive) and the GI50 (COLO 205) was > 100 µM (inactive). The GI50 (A549) was > 100 µM (inactive), the GI50 (HOP-92) was > 100 µM (inactive) and the GI50 (NCI-H522) was > 100 µM (inactive). For the same compound, the GI50 (SW-620) was > 100 µM (inactive), the GI50 (UACC-257) was > 100 µM (inactive) and the GI50 (MOLT-4) was > 100 µM (inactive). For the same compound, the GI50 (CAKI-1) was > 100 µM (inactive).

For `O=C1CC2=CCCC2O1` (stereo not given), the GI50 (CCRF-CEM) was > 100 µM (inactive), the GI50 (M19-MEL) was > 100 µM (inactive) and the GI50 (DMS-273) was > 100 µM (inactive). For the same compound, the GI50 (SF-539) was > 100 µM (inactive), the GI50 (SNB-75) was > 100 µM (inactive) and the GI50 (IGROV-1) was > 100 µM (inactive). The GI50 (UACC-62) was > 100 µM (inactive), the GI50 (SK-MEL-5) was > 100 µM (inactive) and the GI50 (786-0) was > 100 µM (inactive). For the same compound, the GI50 (SF-295) was > 100 µM (inactive), the GI50 (OVCAR-8) was > 100 µM (inactive) and the GI50 (SK-MEL-2) was > 100 µM (inactive). For the same compound, the GI50 (NCI-H23) was > 100 µM (inactive), the GI50 (LOX IMVI) was > 100 µM (inactive) and the GI50 (Malme-3M) was > 100 µM (inactive). For the same compound, the GI50 (RPMI-8226) was > 100 µM (inactive), the GI50 (HL-60) was > 100 µM (inactive) and the GI50 (SF-268) was > 100 µM (inactive). The GI50 (U-251) was > 100 µM (inactive), the GI50 (DMS-114) was > 100 µM (inactive) and the GI50 (SN12C) was > 100 µM (inactive). The GI50 (DLD-1) was > 100 µM (inactive), the GI50 (OVCAR-4) was > 100 µM (inactive) and the GI50 (OVCAR-3) was > 100 µM (inactive). The GI50 (XF498) was > 100 µM (inactive), the GI50 (NCI-H460) was > 100 µM (inactive) and the GI50 (HCT-116) was > 100 µM (inactive). For the same compound, the GI50 (HOP-62) was > 100 µM (inactive), the GI50 (LXFL 529) was > 100 µM (inactive) and the GI50 (KM12) was > 100 µM (inactive). The GI50 (HCC 2998) was > 100 µM (inactive), the GI50 (K562) was > 100 µM (inactive) and the GI50 (HCT-15) was over 100 µM. The GI50 (M14) was > 100 µM (inactive), the GI50 (HT-29) was > 100 µM (inactive) and the GI50 (SNB-19) was > 100 µM (inactive). For the same compound, the GI50 (SNB-78) was > 100 µM (inactive), the GI50 (UO-31) was > 100 µM (inactive) and the GI50 (TK-10) was > 100 µM (inactive). For the same compound, the GI50 (EKVX) was > 100 µM (inactive), the GI50 (SK-MEL-28) was > 100 µM (inactive) and the GI50 (SK-OV-3) was > 100 µM (inactive). For the same compound, the GI50 (COLO 205) was > 100 µM (inactive), the GI50 (RXF 393) was > 100 µM (inactive) and the GI50 (A549) was > 100 µM (inactive). For the same compound, the GI50 (HOP-92) was > 100 µM (inactive), the GI50 (NCI-H522) was > 100 µM (inactive) and the GI50 (SW-620) was > 100 µM (inactive). The GI50 (UACC-257) was > 100 µM (inactive), the GI50 (MOLT-4) was > 100 µM (inactive) and the GI50 (CAKI-1) was > 100 µM (inactive). For the same compound, the GI50 (A498) was > 100 µM (inactive).

In the case of `COc1ccc([C@H]2CC3C(=O)N(c4ccc(OC)cc4)C(=O)C3c3[nH]c4ccccc4c32)cc1` (stereo not given in full), the GI50 (CCRF-CEM) is reported as 48.4 µM (inactive), the GI50 (M19-MEL) is reported as 71.4 µM (inactive) and the GI50 (DMS-273) is reported as 14.8 µM (inactive). For the same compound, the GI50 (SF-539) was 20.7 µM (inactive), the GI50 (KM-20L2) was 69.5 µM (inactive) and the GI50 (SNB-75) was 16.1 µM (inactive). The GI50 (IGROV-1) was > 100 µM (inactive), the GI50 (NCI-H226) was 91 µM (inactive) and the GI50 (UACC-62) was > 100 µM (inactive). The GI50 (SK-MEL-5) was 46.3 µM (inactive), the GI50 (ACHN) was > 100 µM (inactive) and the GI50 (786-0) was 10.8 µM (inactive). The GI50 (SF-295) was 16.7 µM (inactive), the GI50 (OVCAR-8) was 17.1 µM (inactive) and the GI50 (SK-MEL-2) was 53 µM (inactive). The GI50 (NCI-H23) was 54 µM (inactive), the GI50 (LOX IMVI) was > 100 µM (inactive) and the GI50 (Malme-3M) was 36.1 µM (inactive). For the same compound, the GI50 (SF-268) was 82 µM (inactive), the GI50 (U-251) was 59.6 µM (inactive) and the GI50 (DMS-114) was 87.9 µM (inactive). The GI50 (SN12C) was 51.9 µM (inactive), the GI50 (DLD-1) was 93.8 µM (inactive) and the GI50 (OVCAR-4) was > 100 µM (inactive). The GI50 (OVCAR-3) was > 100 µM (inactive), the GI50 (XF498) was 32.7 µM (inactive) and the GI50 (NCI-H460) was 18.6 µM (inactive). The GI50 (HCT-116) was 9.31 µM (inactive), the GI50 (HOP-62) was 32.7 µM (inactive) and the GI50 (LXFL 529) was 55.1 µM (inactive). The GI50 (KM12) was 47 µM (inactive), the GI50 (HCC 2998) was > 100 µM (inactive) and the GI50 (K562) was > 100 µM (inactive). For the same compound, the GI50 (HCT-15) was 57.4 µM, the GI50 (M14) was 66.5 µM (inactive) and the GI50 (SNB-19) was 32.1 µM (inactive). The GI50 (SNB-78) was > 100 µM (inactive), the GI50 (OVCAR-5) was > 100 µM (inactive) and the GI50 (UO-31) was > 100 µM (inactive). The GI50 (TK-10) was > 100 µM (inactive), the GI50 (EKVX) was > 100 µM (inactive) and the GI50 (SK-MEL-28) was 83.9 µM (inactive). The GI50 (SK-OV-3) was 44.2 µM (inactive), the GI50 (COLO 205) was 97.5 µM (inactive) and the GI50 (A549) was 47.4 µM (inactive). For the same compound, the GI50 (HOP-92) was 24 µM (inactive), the GI50 (NCI-H522) was 99.5 µM (inactive) and the GI50 (SW-620) was 45.6 µM (inactive). For the same compound, the GI50 (UACC-257) was > 100 µM (inactive), the GI50 (MOLT-4) was 32.9 µM (inactive) and the GI50 (CAKI-1) was > 100 µM (inactive). The GI50 (A498) was > 100 µM (inactive).
